Patent publication US20100279324A1, “Assay For Detecting Mycobacterial Infection” (The University of Birmingham, priority 2007, published 2010)

System: T cells present in the PBL's
Format: cell-based, human
Settings: anti-CD1b antibody, TB patients

mycolic acid
CD1b restriction of antigen-specific response: CD1b restricted
